Laboratory results taken from patent US20260159474A1, “Aminoindane Compounds and Compositions and Methods of Their Therapeutic Use” (Solvonis Therapeutics Ireland Holdings Limited, priority 2021, published 2026).
“And” between values parts separate entries of the source, which are not always exact repeats. Identical values can stand only once.

Tested on: extracellular serotonin (5-HT) in the nucleus accumbens (NAcc)
Test: In vivo microdialysis in rat nucleus accumbens, serotonin
Design: species or system Sprague Dawley rats
Settings: 7 mg/kg I.P.; for peak 5-HT level: baseline = 100%; for Serotonin (5-HT) level (% from baseline): rat NAcc
Protocol: Methods and Procedure: This study was conducted in compliance with previously described procedures to assure data integrity, adherence to GLP regulations, and standard preclinical study and surgery procedures. The in vivo microdialysis technique was applied to measure the over-time variations of DA, 5-HT, and NE extracellular (EC) concentrations in conscious, freely-moving Sprague Dawley rats. Levels of the neurotransmitters in microdialysis samples were determined using LC-MS/MS analysis. The experiment was also conducted with MDMA for comparative purposes.
As it relates to cannula implantation, the rats were anesthetized with isoflurane 4% in oxygen (2-2.5 L/min), then the isoflurane concentration 2-2.5% was maintained via a nose cone adapted to the stereotaxic apparatus. The rats were treated with meloxicam (0.2 mg/kg, subcutaneously, sc; Meloxidolor) and amoxicilline (150 mg/kg, sc, Betamox LA). The skull was then shaved and disinfected. Rats were then placed in a stereotaxic apparatus for small animals. One vertical guide cannula was inserted through a 1 mm hole drilled on the exposed skull. Coordinates, with respect to the bregma to target specific brain areas, followed indications from stereotaxic atlas of the rat brain. Specifically a guide cannula (MAB 4.12.IC, Agn Tho's AB, Lidinga, Sweden) was inserted in the NAcc (anteroposterior+1.6; lateral −1.6; dorsoventral −6.0). The guide cannula was then secured with dental cement and 2-4 screws. At the end of the surgery the animal was isolated in a single cage during recovery, for a period of at least one week, during which animal health conditions were checked twice daily and the weight recorded twice a week. Animals continued to be housed singly throughout the experiment. One day before the experiment the cannula stylet was removed and a microdialysis probe with a dialyzing length of 2 mm (MAB 4.12.2 Cu, Agn Tho's AB, Lidingo, Sweden) was inserted. Probes can be re-used 2 times for 2 experimental sessions after appropriate cleaning with fresh milliQ water.
Post-surgery, the rats were maintained in a heating chamber prior to waking up in order to avoid hypothermia that could be caused by anaesthesia. 5 mL of physiologic solution was subcutaneously administered immediately after surgery, and once/day for 2-3 days, if signs of dehydration are noticed. Meloxicam (Meloxidolor) 0.2 mg/kg was again administered subcutaneously the day after surgery as well as after 48 h after surgery together with Amoxicilline Long Acting (Betamox LA) 150 mg/kg. Health status and body weight was checked every day during the first week.
The animals were treated with the therapeutic compounds, and MDMA, or their vehicle (saline) according to a Latin square design over 5 separate experimental days (one day/week). The treatments were administered in a volume of 1 mL/kg intraperitoneally.
On the day of the experiment, each animal was taken into the laboratory in its home cage. Inlet tubing of the probe was attached to a dual quartz-lined two channel liquid swivel mounted on a low mass spring counterbalance arm which, in turn, was connected to a gas-tight syringe on a microinfusion pump. […] An equilibration period of about two hours of perfusion was allowed before collecting samples. Following the equilibration period, 4 basal samples were collected for each experimental animal followed by further 10 post-treatment samples. Samples were collected every 20 minutes (up to 3 hours and 20 minutes post-treatment) by means of a refrigerated auto-sampler (Univentor 820 Microsampler, AgnTho's, Sweden) maintained at +8 “C. At the end of all experimental sessions, 2 μL of 0.1% methylene blue solution was injected through the microdialysis probe, animals were euthanized, and their brains removed to confirm the correct probe-position.
As mentioned, the concentration of DA, 5-HT and NE in CSF samples were determined using an optimized method based on LC-MS/MS analysis. […]

Row | Compound | time at which 5-HT levels returned to baseline (rat NAcc microdialysis) [min] | time of peak 5-HT level (rat NAcc microdialysis) [min] | peak 5-HT level (rat NAcc microdialysis) [%] | Serotonin (5-HT) level (% from baseline) (0 min (basal sample)) [%] | Serotonin (5-HT) level (% from baseline) (20 min post-admin) [%] | Serotonin (5-HT) level (% from baseline) (40 min post-admin) [%] | Serotonin (5-HT) level (% from baseline) (60 min post-admin) [%] | Serotonin (5-HT) level (% from baseline) (80 min post-admin) [%] | Serotonin (5-HT) level (% from baseline) (100 min post-admin) [%] | Serotonin (5-HT) level (% from baseline) (120 min post-admin) [%] | Serotonin (5-HT) level (% from baseline) (140 min post-admin) [%] | Serotonin (5-HT) level (% from baseline) (160 min post-admin) [%] | Serotonin (5-HT) level (% from baseline) (180 min post-admin) [%] | Serotonin (5-HT) level (% from baseline) (200 min post-admin) [%] | Serotonin (5-HT) level (% from baseline) (−20 min (basal sample)) [%] | Serotonin (5-HT) level (% from baseline) (180 min post-admin, 7 mg/kg) | peak 5-HT level (rat NAcc microdialysis, 7 mg/kg)
1 | COC(=O)c1ccc2c(c1)CC(N)C2 (stereo not shown) [CMP-405, 2-aminoindane-5-methylcarboxylate] | 180 | 60 | 289 | 97 | 114 | 353 | 289 | 182 | 157 | 140 | 115 | 113 | 100 | 105 | 103 | – | –
2 | CNC(C)Cc1ccc2c(c1)OCO2 (stereo not shown) [MDMA] | – | 60 | 2232 | 98 | 135 | 2000 | 2232 | 1780 | 1545 | 1472 | 1255 | 1083 | – | 871 | 102 | 980% and 972% | –
3 | COc1ccc2c(c1)CC(N)C2 (stereo not shown) [MEAI, 5-methoxy-2-aminoindane] | – | 40 | – | 98 | 446 | 2365 | 2248 | 1391 | 1036 | 830 | 688 | 564 | – | 340 | 102 | 470% | 2365% and ~2500%
